This note sets out measurements from PubChem BioAssay AID602211 (Sanford-Burnham Center for Chemical Genomics, 2012).

The test concerns H9c2 cardiomyocytes, H2O2 protection, ATPLite viability, 2 h. The test can be described thus: H2O2-induced H9c2 cell death suppression – ATPLite luminescence, set 2, dose response (AID 602211;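 note: potency is for protection so actives keep ATP signal up against peroxide killing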). (In ATP-based viability assays light output follows the ATP content of the culture.)

Active and inactive are the calls of the source.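 Rule for the calls: active = mean IC50 at or below 10 µM; inactive = the rest.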

One may read the IC50 as the concentration needed to halve the response being measured.

As to `COc1ccccc1-c1cc(NC(C)=O)c2ncc(-c3cccc(C(C)=O)c3)n2c1`, the IC50 is 11.1 µM (inactive).

Take `Cc1ccc(C(C(=O)NCc2ccccc2)N(Cc2ccco2)C(=O)c2snc(C(N)=O)c2N)o1` (stereo unspecified): the IC50 is 1.8 µM.

For the compound `COc1cc(/C=C(\C#N)C(=O)Nc2ccccc2)ccc1OCCN1CCOCC1`, the IC50 was 11.7 µM (inactive). Then `COC(=O)c1ccc(OCC(=O)Nc2ccccc2C(=O)NC2CC2)cc1`, with 22.6 µM (inactive). Regarding `COc1cccc(Nc2nc3ccccc3n3cnnc23)c1`, the IC50 is 9.05 µM. Then `COc1cc(C(=O)N/N=C/c2sc(N3CCOCC3)nc2-c2ccccc2)cc(OC)c1OC`, with 16.9 µM (inactive); and `COc1cc(NC(=O)c2cc3ccccc3cc2OC)ccc1NC(=O)c1cccs1`, with 3.59 µM; and `CCOCCn1ccc2c(OCC(=O)Nc3cc(OC)ccc3OC)cccc2c1=O`, with 5.23 µM.

Consider `O=C(c1cc(=O)[nH]c2ccccc12)N1CCN(S(=O)(=O)c2ccc3ccccc3c2)CC1`, for which the IC50 is 2.89 µM. The result for `CCOC(=O)c1nc(Nc2ccc(C(=O)OC)cc2)c2ccccc2n1` reads 6.89 µM; that for `O=C(Nc1ccc(C(=O)N2CCOCC2)cc1)c1cnn2c(C(F)F)cc(-c3ccccc3)nc12`, 2.8 µM; that for `Cc1ccc(C)c(C(=O)Nc2cc(C)nn2-c2nc(C)cc(C)n2)c1`, 65.6 µM (inactive). With `COc1ccc(Cl)cc1-c1nc(-c2ccc(NC(=O)c3cccs3)cc2)no1`, the IC50 is > 79 µM (inactive). Then `Cc1ccc2nc(-c3ccccc3)cc(C(=O)NNC(=O)c3csc(N4CCOCC4)n3)c2c1`, with 15 µM (inactive); and `O=C(COC(=O)c1c2c(nc3ccccc13)/C(=C/c1cccc([N+](=O)[O-])c1)CCC2)NC1CCS(=O)(=O)C1` (stereo unspecified), with 4.47 µM.

With `c1ccc(N2CCOCC2)c(Nc2nc3ccccc3n3cnnc23)c1`, the IC50 is 5.28 µM. On to `COc1cc(-c2cnc3c(NC=O)cc(-c4cccnc4)cn23)cc(OC)c1OC`, for which the IC50 is 24.6 µM (inactive).

Take `O=C(c1ccc(-c2nc3ccccc3s2)o1)N1CCN(c2ccccc2O)CC1`: the IC50 is 5.48 µM.

With `COc1ccc(NC(=O)c2oc3ccc(S(=O)(=O)N4CCOCC4)cc3c2C)cc1`, the IC50 was 0.815 µM. `COc1cc(-c2nnc(-c3cc(-c4ccccc4)nc4ccccc34)o2)cc(OC)c1OC`: the IC50 was 4.14 µM. Consider `CCOC(=O)c1cc2c(=O)n3cccc(C)c3nc2n(CCCOC)c1=NC(=O)c1cccnc1`, for which the IC50 is 2.87 µM. For `CCOc1cc(/C=C/c2ccc3cccc([N+](=O)[O-])c3n2)ccc1OCC(=O)N(C)C`, the IC50 was 9.02 µM. In the case of `O=C(NCC(=O)N(Cc1cccs1)C(C(=O)NC1CCCCC1)c1ccco1)c1cccs1` (stereo unspecified), the IC50 was 3.23 µM.

Consider `CC(C)=NNc1cnnc2ccc([N+](=O)[O-])cc12`, for which the IC50 was 4.85 µM. As for `Cc1ccc(C=NNc2nc3c([nH]2)c(=O)n(C)c(=O)n3C)cc1`, the IC50 was 3.93 µM. Take `C=C1C(C)C2C(Cc3ccccc3)NC(=O)C23OC(=O)/C=C/C(O)CCCC(C)C/C=C/C3C1O` (stereo unspecified): the IC50 is 0.611 µM. For the compound `COC(=O)c1cc2ccc(OC)cc2c2cc(OC)c(OC)cc12`, the IC50 is > 79 µM (inactive). For the compound `COC(=O)c1cc2ccccn2c2c(C(=O)OC)c(C(=O)OC)cc1-2`, the IC50 is 2.25 µM. For the compound `CC(C)(C)OC(=O)N1CCC[C@H]1c1nnc(SCC(=O)Nc2ccc(Br)cc2)o1`, the IC50 was 5.87 µM. `COc1cc(-c2cc(NC(C)=O)c3ncc(-c4ccc(F)cc4)n3c2)cc(OC)c1OC`: the IC50 was > 79 µM (inactive).

For `Cn1c(=O)c2[nH]c(NN=Cc3ccc(Br)cc3)nc2n(C)c1=O`, the IC50 is 5.14 µM. Then `O=c1oc2ccc3ccccc3c2cc1-c1nnc(-c2ccccc2)o1`, with 17.5 µM (inactive); and `CC12CCC3C(CCC4CC(O)CCC43C)C1CC(O)C2` (stereo unspecified), with 3.41 µM; and `COC(=O)c1ccc2c(=O)[nH]c(COC(=O)c3[nH]c(C)c(C(C)=O)c3C)nc2c1`, with 5.29 µM. The result for `COCCN1Cc2cccc(C(=O)Nc3cccc(-c4nc5ccccc5[nH]4)c3)c2C1=O` reads 3.91 µM. With `CCOC(=O)C1=C(C)Nc2ccccc2N=C1NC(=O)c1oc2ccccc2c1COC`, the IC50 was 2.89 µM. On to `Cc1cccc(NC(=O)c2nc[nH]c2C(=O)NCCCCCCNC(=O)c2[nH]cnc2C(=O)Nc2cccc(C)c2)c1`, for which the IC50 is > 79 µM (inactive).

With `CC(=O)Nc1cc(-c2ccc(C(=O)NC3CC3)cc2)cn2c(-c3cccc(C(C)=O)c3)cnc12`, the IC50 is 9.83 µM.

In the case of `CCOC(=O)C1CCN(c2cc3c(cc2NC(=O)c2ccccc2)n(C)c(=O)n3C)CC1`, the IC50 was 5.18 µM. As to `Cn1c(=O)[nH]c(=O)c2c1nc(Br)n2CC(O)COc1ccc(Cl)cc1` (stereo unspecified), the IC50 is 2.44 µM. With `O=C(COc1cccc(NC(=O)c2cccc([N+](=O)[O-])c2)c1)c1ccc(F)cc1`, the IC50 was 9.26 µM. `COc1ccc(NC(=O)c2cc3c(=O)n(C)c4ccccc4c3n2C)cc1OC`: the IC50 was 3.23 µM. As for `COC(=O)c1cc(OC)c(OC)cc1NC(=O)c1ccc(C)o1`, the IC50 is 3.98 µM. Turning to `Fc1ccc(-n2cc(-c3ccccc3)c3c(N4CCOCC4)ncnc32)cc1`, the IC50 was 6.27 µM.

Take `Cc1ccc(-c2nnc3ccc(SCC(=O)N4CCCc5ccccc54)nn23)cc1`: the IC50 was > 79 µM (inactive). Consider `COc1cc(/C=C/c2nc(-c3ccccc3O)n[nH]2)cc(OC)c1OC`, for which the IC50 was > 79 µM (inactive). The result for `CCOc1ccccc1NC(=O)c1oc2ccccc2c1NC(=O)C1CCCO1` (stereo unspecified) reads 4.13 µM; that for `COC(=O)c1cc(NC(=O)c2cc3ccccc3o2)cc(C(=O)OC)c1`, 5.42 µM. `COc1cc(/C=C(\C#N)c2nc3ccc(C)cc3[nH]2)c([N+](=O)[O-])cc1OC`: the IC50 was 9.31 µM. `COc1ccc(-n2c(/C=C/c3ccc(O)c(OC)c3)nc3ccccc3c2=O)cc1`: the IC50 was 1.58 µM.

For the compound `Cn1c(-n2c(CCCN3C(=O)c4ccccc4C3=O)nc3ccccc3c2=O)nc2ccccc21`, the IC50 is 11.6 µM (inactive). The result for `COc1ccc(-c2cc(-c3nnc(COC(=O)C4CC4)o3)c3ccccc3n2)cc1OC` reads 4.39 µM; that for `COC(=O)c1cc2c(-c3ccccc3)cc3ccccn3c-2c1C(=O)OC`, 6.44 µM. For the compound `CCOC(=O)c1cc(-c2nnc(-c3cc(OC)c(OC)c(OC)c3)o2)c(C)nc1C`, the IC50 was 2.25 µM. Turning to `CC(C)C(=O)N1CCN(c2ccc(NC(=O)COc3ccccc3[N+](=O)[O-])cc2)CC1`, the IC50 was 1.07 µM. As for `COc1ccc(C=NNc2nc3c([nH]2)c(=O)n(C)c(=O)n3C)cc1`, the IC50 is 5.8 µM. The result for `Cc1cccc(NC(=O)c2nc[nH]c2C(=O)NCCCCNC(=O)c2[nH]cnc2C(=O)Nc2cccc(C)c2)c1` reads 1.39 µM; that for `COc1ccc2oc(C(=O)Nc3ccc(N4CCOCC4)cc3)c(C)c2c1`, > 79 µM (inactive); that for `CCc1nnc(NC(=O)CCC(=O)N2CCN(C3c4ccccc4-c4ccccc43)CC2)s1`, 12.9 µM (inactive). `COc1ccc(-c2cc(C(=O)N(C)Cc3nc4ccccc4c(=O)[nH]3)c3ccccc3n2)cc1OC`: the IC50 was 1.71 µM. The result for `COc1ccccc1OCC(=O)N/N=C/c1cccc2cccnc12` reads 14.1 µM (inactive); that for `COC(=O)c1ccccc1NC(=O)/C=C/c1cc(OC)c(OC)c(OC)c1`, 10.9 µM (inactive). Consider `Cc1cc(NC(=O)c2cccs2)cc(-c2nc3ncccc3o2)c1O`, for which the IC50 is 3.76 µM. Regarding `COc1cc(C(=O)NCC(=O)N/N=C/c2ccc(-c3cccc([N+](=O)[O-])c3)o2)cc(OC)c1OC`, the IC50 was 9.76 µM. For `COc1ccc(Nc2nnc(-c3ccc(O)cc3)c3ccccc23)cc1C(N)=O`, the IC50 was 11.3 µM (inactive). Take `CCN1C(=O)/C(=C/c2nc3ccccc3c(=O)[nH]2)c2ccccc21`: the IC50 was 7.84 µM.

In the case of `CCOc1cc(/C=C(\C#N)C(=O)Nc2ccc(S(N)(=O)=O)cc2)ccc1OCCN1CCOCC1`, the IC50 was 8.4 µM. Turning to `COc1ccc(-c2cc(C(=O)NC(C)c3ccccn3)c3ccccc3n2)cc1OC` (stereo unspecified), the IC50 was 5.39 µM. Turning to `COc1ccc(N(Cc2cc3cc(OC)ccc3[nH]c2=O)C(=O)c2cccnc2)cc1`, the IC50 was 19.1 µM (inactive).

As for `COc1ccc2c(c1OC)c(=O)n1c3ccc(OC(C)C(=O)NCCN4CCOCC4)cc3c3ccnc2c31` (stereo unspecified), the IC50 is 13.7 µM (inactive). As for `COc1cc(C(=O)N/N=C/c2ccc(OC(=O)c3cccc(C)c3)c(OC)c2)ccc1O`, the IC50 was 3.16 µM.

On to `COc1cc(C(=O)N/N=C/c2ccc(OC(=O)c3ccccc3)c(OC)c2)ccc1O`, for which the IC50 was 6.65 µM.

With `CN(C)C(=O)/C=C\c1cn(-c2ccccc2)nc1-c1ccc2c(c1)OCCO2`, the IC50 was > 79 µM (inactive). In the case of `CCC(CC)C(=O)Nc1cc(C)c2c(=O)oc3ccccc3c2n1`, the IC50 is 2.05 µM.

For the compound `Cc1ccccc1C(C(=O)NCc1ccccc1)N(Cc1ccco1)C(=O)c1ccccn1` (stereo unspecified), the IC50 was > 79 µM (inactive). Turning to `Cc1nc(NC(=O)c2cc3c(C)nn(-c4ccccc4)c3s2)sc1C(=O)Nc1ccccc1`, the IC50 was 2.7 µM. With `CC(=O)Nc1ccc(C(=O)N/N=C/c2ccccc2OC(=O)c2ccc(Cl)cc2)cc1`, the IC50 was 13.6 µM (inactive). For `O=C(N/N=C/c1ccccn1)c1[nH]c2ccc([N+](=O)[O-])cc2c1-c1ccccc1`, the IC50 is 2.33 µM. On to `CCOC(=O)C(Cc1ccc(NC(=O)/C(=C/c2ccc(OC(C)=O)cc2)NC(C)=O)cc1)N1C(=O)c2ccccc2C1=O` (stereo unspecified), for which the IC50 was 2.78 µM. For the compound `COC(=O)c1ccccc1NC(=O)c1ccc2nccnc2c1`, the IC50 is 50.6 µM (inactive).

For `CC(=O)Nc1cc(C)nn1-c1nc2ccccc2s1`, the IC50 was 14.6 µM (inactive). Turning to `COc1ccc(CCNc2nc(-c3cccnc3)nc3ccccc23)cc1OC`, the IC50 is 2.28 µM. Then `COc1ccc(OC)c(NC(=O)c2sc3ncnc(N4CCN(c5ccccn5)CC4)c3c2C)c1`, with 16.2 µM (inactive). In the case of `COCCCNC(=O)/C(C#N)=C1\N=C(NC(=O)c2cccs2)c2ccccc21`, the IC50 is > 79 µM (inactive). On to `Cc1cccc(NC(=O)c2oc3ccc(S(=O)(=O)N4CCOCC4)cc3c2C)c1C`, for which the IC50 was 3.23 µM. `O=C(c1cc(-c2cccnc2)nc2ccc(Br)cc12)N1CCN(c2ncccn2)CC1`: the IC50 is 3.6 µM.
